Measurements as given in US20220387466A1, “COMPOUNDS AND PHARMACEUTICAL COMPOSITIONS FOR PREVENTION AND/OR TREATMENT OF DYSBIOSIS AND ANTIBACTERIAL ANTIDOTES FOR MICROBIOME-PROTECTION” (priority 2019, published 2022).
Values after ≈ are worked out from the molar mass of the structure shown. “Also recorded” adds a separate entry of the source.

Columns and labels:
B. vulgatus [1] = assay: Growth curves and time-lapse microscopy under erythromycin; assay type: cell-based, Bacteroides vulgatus; conditions: 15 μg/ml erythromycin (5-fold MIC), time-lapse microscopy
Description: (§1) Microscopy: For live/dead imaging, stained cells were washed twice in 0.85% NaCl before being spotted on 0.85% NaCl+1% agarose pads between a glass slide and a coverslip. For time-lapse imaging, cells were precultured as described in the growth conditions section. […] Slides were sealed with valap and taken outside of the chamber for imaging. The imaging was performed using a Nikon Eclipse Ti inverted microscope, equipped with a Nikon DS-Qi2 camera, a Nikon Plan Apo Lambda 60× oil Ph3 DM phase contrast objective and a Nikon HC mCherry filter set (Ex 562/40; DM 593; BA 641/75) to detect propidium iodide fluorescence. Images were acquired with the NIS-Elements AR4.50.00 software and processed with Fiji v.2.0.0-rc-68/1.52 h.
(§2) Growth curves: Cells were precultured as described in the growth conditions section. Then, cells were diluted to an OD578=0.01 in a 96-well plate sealed with a breathable membrane (Breathe-Easy®) and grown for 2 h. Next, erythromycin was added to the culture to a final concentration of 15 μg/ml (5-fold MIC) and growth curves were acquired for 20 h using a microplate spectrophotometer (EON, Biotek) by measuring the OD578 every hour after 30 sec of linear shaking.

[2] = system: seven-member synthetic community including the pathogen E. faecalis; assay: E. faecalis-containing synthetic community, community growth AUC (Example 7); assay type: cell-based
From the text: (§3) Heat maps show median area under the growth curve (AUC) of the seven-member synthetic community including the pathogen E. faecalis. The numbers within the heat map represent the total number of all E. faecalis viable cells for each erythromycin-antidote combination as determined by enumerating of E. faecalis colony forming units after plating on selective medium. All drug concentrations are in μM. n. d.=not detectable.
(§4) The inventors exposed synthetic communities that contained the intestinal gut pathogen E. faecalis to erythromycin, and evaluated rescue of gut commensals and simultaneous killing of the pathogen in the presence of antidotes.

S. pneumoniae = conditions: cited from earlier work
Staphylococcus = conditions: cited from earlier work
E. faecalis [3] = assay: E. faecalis-containing synthetic community, E. faecalis CFU on selective medium (Example 7); assay type: cell-based, Enterococcus faecalis
From the text: as §3, §4

B. uniformis = assay: Growth curves and time-lapse microscopy under erythromycin; assay type: cell-based, Bacteroides uniformis; conditions: 15 μg/ml erythromycin (5-fold MIC), time-lapse microscopy
Description: as §1, §2

[4] = system: Streptococcus groups A, B, C & G; conditions: cited from earlier work
B. vulgatus [5] = assay: 8x8 checkerboard assay for anaerobic commensals (antibiotic vs antagonist); assay type: cell-based, Bacteroides vulgatus; conditions: for rescue of B. vulgatus growth from erythromycin: combination with erythromycin
From the text: (§5) Checkerboard assays for anaerobic commensals: Validated antagonists were further investigated in 8×8 checkerboard assays, where both antibiotics and antagonists were titrated against each other. Such assays were first performed for the commensals that were originally screened (i. e. B. vulgatus and B. uniformis—4 replicates) and later expanded towards 6 further gut microbes (B. caccae, B. fragilis NT, B. ovatus, B. thetaiotaomicron, P. copri, P. distasonis—2 replicates). For vertical gradients, 2-fold serial dilutions of the antagonists were prepared first in 100× in DMSO and diluted in MGAM as described above (section ‘Validation of microbiome-protective antagonists’). Horizontal antibiotic dilution series were freshly prepared in MGAM at 4× final concentration in equidistant concentration steps. Both, vertical and horizontal dilution series were combined (50 μl of the antagonist gradients (2×) and 25 μl of the antibiotic gradients (4×)) in 96 well plates. Plates were pre-reduced under anaerobic conditions overnight, inoculated with 25 μl of diluted overnight culture (at 4× starting OD) and sealed with breathable membrane (Breathe-Easy®). Bacterial growth was monitored once per hour for 24 hours after 30 sec linear shaking (Eon+Biostack 4, Biotek) under anaerobic conditions. Growth curves were converted into normalized AUCs as described using in-plate controls to define unperturbed growth.

B. vulgatus [6] = assay: Validation of microbiome-protective antagonists (concentration-dependent growth rescue); assay type: cell-based, Bacteroides vulgatus; conditions: antagonist gradient, normalized AUC >0.25 = growth rescue
Description: Validation of microbiome-protective antagonists: In a first step, the inventors kept the erythromycin/doxycycline concentration constant (0.625 μM for erythromycin, 0.078 μM (B. vulgates)/0.039 μM (B. uniformis) for doxycycline) and tested concentration gradients of the potential antagonists with ranges depending on the antagonist's solubility. Compounds were purchased from independent vendors and dissolved at 100× starting concentration in DMSO. Eight 2-fold serial dilutions were prepared in 96-well plates with each row containing a different antagonist, sufficient control DMSO wells and wells with just the respective antibiotic (‘antibiotic-only’ control). These master plates were diluted in MGAM medium (50 μl) to 2×assay concentration and 25 μl freshly prepared antibiotic solution (4× test concentration) was added. Plates were pre-reduced overnight in an anaerobic chamber and inoculated with 25 μl of overnight cultures (prepared as described under “Growth conditions”) to reach a starting OD578 of 0.01 and 1% DMSO concentration. Growth was monitored hourly for 24 h after 30 sec of linear shaking. Experiments were performed in biological triplicates. For analysis, growth curves were converted into normalized AUCs (see above). The inventors accounted for residual growth in the presence of the antibiotic by subtracting the median normalized AUCs of the ‘antibiotic-only’ control per plate.

[7] = system: synthetic gut commensal community of seven human gut commensals; assay: Synthetic gut commensal community growth with macrolide and antidote (Example 5); assay type: cell-based; conditions: erythromycin and azithromycin
From the text: Heat maps depict area under the growth curve (AUC) of a synthetic community consisting of seven human gut commensals. Shown is the median AUC of three individual replicates. All drug concentrations are in μM.
So far, antidote effects have only been analyzed in single or pure cultures. However, the human gut microbiome is a complex community of many different bacterial taxa that is usually not adequately mimicked in monocultures.

E. faecium [8] = assay: Antidote with macrolide on enterococci (Example 6); assay type: cell-based
[9] = system: species of the order Bacteroidales; assay: Antidote vs azithromycin across seven gut Bacteroidales (Example 4); assay type: cell-based; conditions: combination with azithromycin
Description: The antidotes dicumarol (first column), benzbromarone (second column) and tolfenamic acid (third column) were tested for their efficacy in antagonizing the macrolide antibiotic azithromycin across seven prevalent and abundant gut Bacteroidales (B. vulgatus, B. fragilis NT, B. thetaiotaomicron, P. copri, B. caccae, B. ovatus, P. distasonis). […] All drug concentrations are in μM.
In particular, they aimed at testing, whether these antidotes can also protect from other macrolides such as azithromycin, a clinically more relevant antibiotic.

[10] = system: abundant gut commensal species; assay: Checkerboard assays on further abundant gut commensals; assay type: cell-based; conditions: for tested abundant gut commensal species whose growth is rescued: antidote 5-40 μm, clinically relevant erythromycin concentrations; for counteracting erythromycin on other abundant gut commensals: checkerboard with erythromycin
From the text: as §5

B. vulgatus [11] = assay: Prestwick library screen for microbiome-protective antibiotic antagonists (growth AUC z-scores); assay type: cell-based, Bacteroides vulgatus; conditions: z-score of normalized growth AUC, two replicates
E. faecalis [12] = assay: Antidote with macrolide on enterococci (Example 6); assay type: cell-based, Enterococcus faecalis
From the text: Heat maps show median area under the growth curve (AUC) of three biologically independent replicates. […] All drug concentrations are in μM.
Here, the inventors expanded testing towards additional antidotes, and included the intestinal human pathogen Enterococcus faecalis.

Streptococcus pneumoniae = assay: Antagonist concentration gradients at constant antibiotic concentration, aerobic; assay type: cell-based
Description: (§6) Checkerboard assays for pathogens under aerobic conditions: For three pathogens (S. aureus Newman ATCC 13420, S. aureus subsp. aureus Rosenbach 1884 DSM20231 and E. faecium ATCC19434) 8×8 checkerboard assays were performed in transparent 384 well plates (Greiner BioOne GmbH), with each well containing 30 μl (50 μl for S. pneumoniae) in total. S. aureus strains were grown in tryptic soy broth, E. faecium in BHI medium. Antagonistic drug concentrations were 2-fold distant. Cell were inoculated at initial OD595 nm 0.01 from an overnight culture. Plates were sealed with breathable membranes (Breathe-Easy), incubated at 37° C. (Cytomat 2, Thermo Scientific) with continuous shaking and OD595 nm was measured every 30 minutes for 16 hours in a Filtermax F5 multimode plate reader (Molecular Devices). Growth was evaluated at the transition to stationary phase (9 hours for S. aureus, 12 hours for E. faecium). All experiments were done at least in 2 biological replicates and 2 technical replicates. For S. pneumoniae […], the inventors only tested concentration gradients of the potential antagonists in constant concentration of the antibiotics in BHI medium.

Staphylococcus aureus = assay: Checkerboard assays for pathogens under aerobic conditions; assay type: cell-based; conditions: for effect on the potency of erythromycin: Staphylococcus aureus, aerobic
Description: as §6

E. faecium [13] = assay: as above; assay type: cell-based
Description: as §6

[14] = erythromycin 1.15 μM + 40 μM dicumarol or 20 μM benzbromarone
[15] = Erythromycin 0.625 μM + 20 μM drug

SMILES	rescue of B. vulgatus growth from erythromycin (B. vulgatus [5])	Validation (B. vulgatus [6]; Erythromycin 0.625 μM constant)	protection (growth rescue) of synthetic gut commensal community from macrolide antibiotics [7]	rescue from erythromycin or azithromycin treatment (E. faecium [8])	protection of Bacteroidales species from azithromycin [9]	tested abundant gut commensal species whose growth is rescued [10]	counteracting erythromycin on other abundant gut commensals [10]	Mean z-score (B. vulgatus [11]; [15])	rescue from erythromycin or azithromycin treatment (E. faecalis [12])	effect on the potency of erythromycin (Streptococcus pneumoniae)	effect on the potency of erythromycin (Staphylococcus aureus)	further results
CC[C@H]1OC(=O)[C@H](C)[C@@H](O[C@H]2C[C@@](C)(OC)[C@@H](O)[C@H](C)O2)[C@H](C)[C@@H](O[C@@H]2O[C@H](C)C[C@H](N(C)C)[C@H]2O)[C@](C)(O)C[C@@H](C)C(=O)[C@H](C)[C@@H](O)[C@]1(C)O [Erythromycin, erythromycin]												cell morphology / lysis (B. vulgatus [1]): cell shape defects, including blebbing, cytoplasmic shrinkage, and ultimately cell lysis; community growth (AUC) ([2]; erythromycin 1.15 μM alone): partially inhibited; MIC breakpoint (S. pneumoniae): 0.25 µg/mL (≈ 0.341 µM); MIC breakpoint (Staphylococcus): 1 µg/mL (≈ 1.36 µM); E. faecalis cells in the community (E. faecalis [3]; erythromycin 1.15 μM alone): ~9×10^5 cells; cell morphology / lysis (B. uniformis): cell shape defects, including blebbing, cytoplasmic shrinkage, and ultimately cell lysis; MIC breakpoint [4]: 0.25 µg/mL (≈ 0.341 µM)
O=c1oc2ccccc2c(O)c1Cc1c(O)c2ccccc2oc1=O [Dicumarol, 3,3′-Methylene-bis(4-hydroxycoumarin)]	rescued; also recorded: can rescue the growth	TRUE	can be Protected	Neither dicumarol nor benzbromarone or tolfenamic acid could rescue	can be Protected	5/7	able to counteract erythromycin on several species	7.313	Neither dicumarol nor benzbromarone or tolfenamic acid could rescue	did not affect the potency	did not affect the potency	community growth (AUC) [2, 14]: the community is rescued; rescue of the community despite erythromycin treatment ([2]; erythromycin + antidote): rescue of the community; E. faecalis counts (E. faecalis [3]; [14]): drop/are still found at below the detection limit; E. faecalis cells in community under erythromycin + antidote (E. faecalis [3]; erythromycin + antidote): efficiently inhibited
Cc1c(Cl)cccc1Nc1ccccc1C(=O)O [Tolfenamic acid]	able to protect; also recorded: can rescue the growth	TRUE	can be Protected	Neither dicumarol nor benzbromarone or tolfenamic acid could rescue	can be Protected	5/7	able to counteract erythromycin on several species	7.381	Neither dicumarol nor benzbromarone or tolfenamic acid could rescue	did not affect the potency	did not affect the potency	rescue of B. vulgatus growth from doxycycline (B. vulgatus [5]; combination with doxycycline): able to protect; Validation (B. vulgatus [6]; Doxycycline 0.078 μM constant): TRUE; interaction with antibacterial effects of erythromycin/azithromycin (E. faecium [8]): synergized; Mean z-score (B. vulgatus [11]; Doxycycline 0.08 μM + 20 μM drug): 4.000; interaction with antibacterial effects of erythromycin/azithromycin (E. faecalis [12]): synergized; drug interaction with erythromycin in checkerboard (E. faecium [13]): neutral interactions; drug interaction with erythromycin in checkerboard (Staphylococcus aureus; S. aureus, aerobic conditions): neutral interactions
